ChEMBL document CHEMBL1201862, “PubChem BioAssay data set” (2004)
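Interpolation was linear, between the two tested concentrations surrounding the appropriate level; five concentrations were tested over 48 hours in 96-well plates. Here, GI50 denotes the concentration required for 50% inhibition of growth.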 Active and inactive are the calls of the source. Cut-off read from the data, not from the text of the source: active = GI50 up to about 1.1 µM and inactive = higher.

Legend:
Test in all cases: NCI tumour cell line growth inhibition, 48 h
[1] = tested on: HOP-18
[2] = tested on: OVCAR-3
[3] = tested on: UO-31
[4] = tested on: UACC-62
[5] = tested on: OVCAR-4
[6] = tested on: SF-295
[7] = tested on: RPMI-8226
[8] = tested on: SK-MEL-2
[9] = tested on: SR
[10] = tested on: Malme-3M
[11] = tested on: SF-539
[12] = tested on: IGROV-1
[13] = tested on: SNB-19
[14] = tested on: A498
[15] = tested on: NCI-H226
[16] = tested on: NCI-H522
[17] = tested on: MOLT-4
[18] = tested on: RXF 631
[19] = tested on: SNB-78
[20] = tested on: XF498
[21] = tested on: SF-268
[22] = tested on: SW-620
[23] = tested on: UACC-257
[24] = tested on: EKVX
[25] = tested on: KM12
[26] = tested on: 786-0
[27] = tested on: OVCAR-8
[28] = tested on: SNB-75
[29] = tested on: K562
[30] = tested on: DMS-114
[31] = tested on: HOP-92
[32] = tested on: COLO 205
[33] = tested on: DLD-1
[34] = tested on: SK-OV-3
[35] = tested on: SK-MEL-5
[36] = tested on: HCT-116
[37] = tested on: ACHN
[38] = tested on: U-251
[39] = tested on: SN12C
[40] = tested on: A549
[41] = tested on: HCC 2998
[42] = tested on: M19-MEL
[43] = tested on: LOX IMVI
[44] = tested on: NCI-H23
[45] = tested on: SK-MEL-28
[46] = tested on: NCI-H460
[47] = tested on: DMS-273
[48] = tested on: OVCAR-5
[49] = tested on: LXFL 529
[50] = tested on: CCRF-CEM
[51] = tested on: CAKI-1
[52] = tested on: HOP-62
[53] = tested on: TK-10
[54] = tested on: M14
[55] = tested on: HT-29
[56] = tested on: RXF 393
[57] = tested on: HL-60
[58] = tested on: KM-20L2
[59] = tested on: HCT-15

`Cn1cnc([N+](=O)[O-])c1Sc1ccccn1` was tested, and the GI50 [1] was 14.9 µM (inactive), the GI50 [2] was > 100 µM (inactive) and the GI50 [3] was 87.1 µM (inactive). For the same compound, the GI50 [4] was > 100 µM (inactive), the GI50 [5] was > 100 µM (inactive) and the GI50 [6] was > 100 µM (inactive). The GI50 [7] was > 100 µM (inactive), the GI50 [8] was 74.6 µM (inactive) and the GI50 [9] was 50.6 µM (inactive). The GI50 [10] was 68.4 µM (inactive), the GI50 [11] was > 100 µM (inactive) and the GI50 [12] was > 100 µM (inactive). For the same compound, the GI50 [13] was > 100 µM (inactive), the GI50 [14] was > 100 µM (inactive) and the GI50 [15] was > 100 µM (inactive). The GI50 [16] was 74.3 µM (inactive), the GI50 [17] was 38.5 µM (inactive) and the GI50 [18] was > 100 µM (inactive). The GI50 [19] was > 100 µM (inactive), the GI50 [20] was 36.3 µM (inactive) and the GI50 [21] was > 100 µM (inactive). For the same compound, the GI50 [22] was > 100 µM (inactive), the GI50 [23] was > 100 µM (inactive) and the GI50 [24] was > 100 µM (inactive). For the same compound, the GI50 [25] was > 100 µM (inactive), the GI50 [26] was > 100 µM (inactive) and the GI50 [27] was > 100 µM (inactive). The GI50 [28] was > 100 µM (inactive), the GI50 [29] was > 100 µM (inactive) and the GI50 [30] was > 100 µM (inactive). The GI50 [31] was > 100 µM (inactive), the GI50 [32] was 76.4 µM (inactive) and the GI50 [33] was > 100 µM (inactive). The GI50 [34] was > 100 µM (inactive), the GI50 [35] was > 100 µM (inactive) and the GI50 [36] was > 100 µM (inactive). For the same compound, the GI50 [37] was > 100 µM (inactive), the GI50 [38] was > 100 µM (inactive) and the GI50 [39] was > 100 µM (inactive). The GI50 [40] was > 100 µM (inactive), the GI50 [41] was > 100 µM (inactive) and the GI50 [42] was > 100 µM (inactive). For the same compound, the GI50 [43] was > 100 µM (inactive), the GI50 [44] was > 100 µM (inactive) and the GI50 [45] was > 100 µM (inactive). The GI50 [46] was > 100 µM (inactive), the GI50 [47] was > 100 µM (inactive) and the GI50 [48] was > 100 µM (inactive). The GI50 [49] was 70.5 µM (inactive), the GI50 [50] was 48.9 µM (inactive) and the GI50 [51] was > 100 µM (inactive). The GI50 [52] was > 100 µM (inactive), the GI50 [53] was > 100 µM (inactive) and the GI50 [54] was > 100 µM (inactive). For the same compound, the GI50 [55] was > 100 µM (inactive).
For `O=C(Nc1nc2c(ncn2C2OC(CO)C(O)C2O)c(=O)[nH]1)c1ccccc1` (configuration not stated), the GI50 [1] was > 100 µM (inactive), the GI50 [2] was > 100 µM (inactive) and the GI50 [3] was > 100 µM (inactive). The GI50 [4] was > 100 µM (inactive), the GI50 [5] was > 100 µM (inactive) and the GI50 [6] was > 100 µM (inactive). For the same compound, the GI50 [7] was > 100 µM (inactive), the GI50 [8] was > 100 µM (inactive) and the GI50 [9] was > 100 µM (inactive). For the same compound, the GI50 [10] was > 100 µM (inactive), the GI50 [11] was > 100 µM (inactive) and the GI50 [12] was > 100 µM (inactive). The GI50 [14] was > 100 µM (inactive), the GI50 [15] was > 100 µM (inactive) and the GI50 [16] was 93.3 µM (inactive). The GI50 [18] was > 100 µM (inactive), the GI50 [19] was > 100 µM (inactive) and the GI50 [20] was > 100 µM (inactive). The GI50 [21] was > 100 µM (inactive), the GI50 [22] was > 100 µM (inactive) and the GI50 [23] was > 100 µM (inactive). The GI50 [24] was > 100 µM (inactive), the GI50 [25] was > 100 µM (inactive) and the GI50 [26] was > 100 µM (inactive). The GI50 [27] was > 100 µM (inactive), the GI50 [28] was > 100 µM (inactive) and the GI50 [29] was > 100 µM (inactive). The GI50 [56] was 63 µM (inactive), the GI50 [31] was > 100 µM (inactive) and the GI50 [32] was > 100 µM (inactive). The GI50 [57] was > 100 µM (inactive), the GI50 [33] was > 100 µM (inactive) and the GI50 [34] was > 100 µM (inactive). The GI50 [35] was > 100 µM (inactive), the GI50 [36] was > 100 µM (inactive) and the GI50 [37] was > 100 µM (inactive). For the same compound, the GI50 [38] was > 100 µM (inactive), the GI50 [39] was > 100 µM (inactive) and the GI50 [40] was > 100 µM (inactive). For the same compound, the GI50 [58] was > 100 µM (inactive), the GI50 [42] was > 100 µM (inactive) and the GI50 [43] was > 100 µM (inactive). The GI50 [44] was > 100 µM (inactive), the GI50 [45] was > 100 µM (inactive) and the GI50 [46] was > 100 µM (inactive). For the same compound, the GI50 [47] was > 100 µM (inactive), the GI50 [48] was > 100 µM (inactive) and the GI50 [49] was > 100 µM (inactive). The GI50 [50] was 2.5 µM (inactive), the GI50 [51] was > 100 µM (inactive) and the GI50 [52] was > 100 µM (inactive). For the same compound, the GI50 [59] was greater than 100 µM, the GI50 [53] was > 100 µM (inactive) and the GI50 [54] was > 100 µM (inactive). The GI50 [55] was > 100 µM (inactive).
In the case of `Cc1ccccc1C1=C(C(=O)Nc2ccc(Cl)c(Cl)c2)NC(=S)NC1N` (configuration not stated), the GI50 [1] is reported as > 100 µM (inactive), the GI50 [2] is reported as > 100 µM (inactive) and the GI50 [3] is reported as > 100 µM (inactive). For the same compound, the GI50 [4] was > 100 µM (inactive), the GI50 [5] was > 100 µM (inactive) and the GI50 [7] was > 100 µM (inactive). For the same compound, the GI50 [8] was > 100 µM (inactive), the GI50 [10] was > 100 µM (inactive) and the GI50 [11] was > 100 µM (inactive). The GI50 [12] was > 100 µM (inactive), the GI50 [13] was > 100 µM (inactive) and the GI50 [14] was > 100 µM (inactive). The GI50 [16] was > 100 µM (inactive), the GI50 [17] was > 100 µM (inactive) and the GI50 [18] was > 100 µM (inactive). For the same compound, the GI50 [19] was > 100 µM (inactive), the GI50 [20] was > 100 µM (inactive) and the GI50 [21] was > 100 µM (inactive). The GI50 [22] was > 100 µM (inactive), the GI50 [23] was > 100 µM (inactive) and the GI50 [24] was > 100 µM (inactive). For the same compound, the GI50 [25] was > 100 µM (inactive), the GI50 [26] was > 100 µM (inactive) and the GI50 [27] was > 100 µM (inactive). For the same compound, the GI50 [28] was > 100 µM (inactive), the GI50 [29] was > 100 µM (inactive) and the GI50 [30] was > 100 µM (inactive). The GI50 [56] was > 100 µM (inactive), the GI50 [32] was > 100 µM (inactive) and the GI50 [33] was > 100 µM (inactive). For the same compound, the GI50 [34] was > 100 µM (inactive), the GI50 [35] was > 100 µM (inactive) and the GI50 [36] was > 100 µM (inactive). For the same compound, the GI50 [37] was > 100 µM (inactive), the GI50 [38] was > 100 µM (inactive) and the GI50 [39] was > 100 µM (inactive). The GI50 [40] was > 100 µM (inactive), the GI50 [58] was > 100 µM (inactive) and the GI50 [42] was > 100 µM (inactive). For the same compound, the GI50 [43] was > 100 µM (inactive), the GI50 [44] was > 100 µM (inactive) and the GI50 [45] was > 100 µM (inactive). The GI50 [46] was > 100 µM (inactive), the GI50 [47] was > 100 µM (inactive) and the GI50 [48] was 82.6 µM (inactive). For the same compound, the GI50 [49] was > 100 µM (inactive), the GI50 [50] was > 100 µM (inactive) and the GI50 [51] was > 100 µM (inactive). For the same compound, the GI50 [59] was greater than 100 µM, the GI50 [53] was > 100 µM (inactive) and the GI50 [54] was > 100 µM (inactive). For the same compound, the GI50 [55] was > 100 µM (inactive).
